Data: patent publication US9676720B2, “Substituted biaryl compound” (UBE INDUSTRIES, LTD., priority 2013, dated 2017)
Read-outs that look alike come from different tables or passages of the source.

Columns and labels:
[1] = system: Pulmonary fibroblasts derived from a human fetus (IMR90); assay: Test for inhibition of pulmonary fibroblast proliferation (BrdU incorporation); assay type: cell-based
Procedure: Measurement of inhibition effect of pulmonary fibroblast proliferation was performed by modifying the method of Huang et al. (American Journal of Respiratory Cell and Molecular Biology, 39, 482 (2008)). Pulmonary fibroblasts derived from a human fetus (IMR90, purchased from American Type Culture Collection) were cultured in DMEM medium containing 10% FBS and seeded at 1×10^4 cells/well of a 96-well plate. After culturing for approximately 8 hours in a carbon dioxide incubator, the medium was replaced with FBS-free DMEM medium and the culturing was performed for one night. On the following day, the medium was replaced with a new FBS-free DMEM medium, and then a test compound dissolved in dimethyl sulfoxide (final concentration: 0.1%) and FGF (final concentration: 10 ng/mL, manufactured by Wako Pure Chemical Industries, Ltd.) were added thereto and allowed to stand undisturbed in a carbon dioxide incubator. After 22 hours, a BrdU labeling solution (manufactured by Roche) was added and culturing was performed for another 2 hours. After the completion of the culturing, amount of BrdU incorporation was measured using Cell Proliferation ELISA BrdU (colorimetric) (manufactured by Roche). The concentration of the test compound required to inhibit BrdU incorporation to 50% (IC50 value) was calculated by non-linear regression of the test compound concentration and the amount of BrdU incorporation using EXSAS (Ver. 8.0.0, manufactured by Arm Systex).

[2] = biological target: human EP2 receptor (Homo sapiens (Human), UniProt P43116); assay: Measurement of EP2 receptor binding action; details: membrane fraction of HEK293 cells expressing human EP2 receptor; [3H]prostaglandin E2 10 nM
Procedure: The membrane fraction was recovered on glass fiber filter paper (GF/B, manufactured by Whatman) using a cell harvester (M30R, manufactured by Brandel), and after washing with a buffer solution (10 mM MES-KOH (pH 6.0), 10 mM MgCl2), radioactivity was measured with a liquid scintillation analyzer (2000CA, manufactured by Packard). […] Ki=IC50/(1+([^3H]prostaglandin E2 concentration/Kd))
Note that the dissociation constant (Kd value) was calculated by Scatchard analysis.

[3] = system: mouse pulmonary fibrosis models (bleomycin); assay: Test for inhibition of pulmonary fibrosis in mouse (bleomycin model, lung hydroxyproline); assay type: in vivo, ICR mice; details: dose of 0.3 mg/kg, intratracheal administration twice per day for 28 days
Procedure: Test for inhibition effect of pulmonary fibrosis using mouse was performed by partially modifying the method of Oku et al. (European Journal of Pharmacology, 590, 400 (2008)). […] These models were used as a bleomycin control group and a test compound administration group. Similarly, a normal group was subjected to administration of saline for 5 days. For the test, each group used 7 or more mice. The test compound solution for the administration was prepared by dissolving the test substance to the equimolar amount of 0.1 mol/L aqueous sodium hydroxide solution, and then neutralizing by adding a phosphate buffer solution (PBS) which was a medium. The test compound was administered via intratracheal administration twice per day from the start date of the test, for 28 days. For the normal group and bleomycin control group, the medium was administered similarly via intratracheal administration. For the intratracheal administration, the MicroSprayerTM (IA-1C-M, manufactured by PennCentury) was used. On the day following the completion of 28-day administration, the mice were left bleeding to die while subjecting the mice for inhalation anesthesia, to collect the lungs. […] The amount of hydroxyproline (HYP) in the lung hydrolysis solution, which is an indicator of collagen accumulation, was measured by the method of Woessner et al. (Archives of Biochemistry and Biophysics, 93, 440 (1961)). […] After cooling, 200 μL of the colored solution was placed on a microplate, and the absorbance (measurement wavelength: 570 nm, reference wavelength: 620 nm) was measured using a plate reader (SPECTRA FLOUR, manufactured by Tecan). A HYP solution having a specified concentration was reacted in the same manner to create a calibration curve, and the HYP concentration of each sample was calculated. From the calculated HYP concentration, the amount of HYP in the lung per 100 g of body weight was calculated. The inhibiting rate of HYP formation in the lung upon administration of the test compound was calculated using the formula described below. […]

[4] = Homo sapiens, IMR-90, IMR90, FGF 10 ng/mL, BrdU incorporation, read-out: IC50 value (nM) of inhibition effect of pulmonary fibroblast proliferation
[5] = Homo sapiens, IMR-90, read-out: IC50 value (nM) of inhibition effect of pulmonary fibroblast proliferation

human EP2 receptor, sequence (P43116 whole entry): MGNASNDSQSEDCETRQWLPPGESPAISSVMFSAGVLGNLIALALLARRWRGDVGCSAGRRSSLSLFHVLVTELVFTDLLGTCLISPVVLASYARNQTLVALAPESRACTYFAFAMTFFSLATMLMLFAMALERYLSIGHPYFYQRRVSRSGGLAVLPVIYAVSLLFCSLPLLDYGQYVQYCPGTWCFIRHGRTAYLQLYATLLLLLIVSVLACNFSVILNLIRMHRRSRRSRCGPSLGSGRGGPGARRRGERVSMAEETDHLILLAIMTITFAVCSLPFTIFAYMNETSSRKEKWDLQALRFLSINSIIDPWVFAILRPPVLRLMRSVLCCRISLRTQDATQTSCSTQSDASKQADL

Structure (SMILES) | IC50 [1, 4] [nM] | IC50 [1, 5] [nM] | other results
CC=Cc1cccc(-c2ccc(CN(Cc3cccc(NCC(=O)O)n3)S(=O)(=O)c3ccccn3)cc2)c1 [Example 2] | 0.035 |  | 
CCOc1cccc(-c2ccc(CN(Cc3cccc(NCC(=O)O)n3)S(=O)(=O)c3ccccn3)cc2)c1 [Example 7, {6-[(3′-Ethoxybiphenyl-4-ylmethyl)(pyridin-2-ylsulfonyl)aminomethyl]-pyridin-2-ylamino}acetic acid] | 0.028 |  | 
CC#Cc1cccc(-c2ccc(CN(Cc3cccc(NCC(=O)O)n3)S(=O)(=O)c3cccc(F)c3)cc2)c1 [Example 19, (6-{(3-Fluorobenzenesulfonyl)[3′-(1-propynyl)biphenyl-4-ylmethyl]-aminomethyl}pyridin-2-ylamino)acetic acid] |  | 0.026 | 
CC#Cc1cccc(-c2ccc(CN(Cc3cccc(NCC(=O)O)n3)S(=O)(=O)c3ccsc3)cc2)c1 [Example 18] |  |  | IC50 ([1]; IMR90, FGF 10 ng/mL, BrdU incorporation, read-out: IC50 value (nM) of inhibition effect of pulmonary fibroblast proliferation): 0.0042 nM; Ki [2]: 0.99 nM
CCOc1cccc(-c2ccc(CN(Cc3cccc(NCC(=O)O)n3)S(=O)(=O)c3ccccc3)cc2)c1 [Example 10, {6-[(Benzenesulfonyl)(3′-ethoxybiphenyl-4-ylmethyl)aminomethyl]pyridin-2-ylamino}acetic acid] |  | 0.035 | Inhibiting rate of HYP formation in the lung [3]: ≥ 70%
O=C(O)CNc1cccc(CN(Cc2ccc(-c3ccccc3)cc2)S(=O)(=O)c2ccccn2)n1 [Comparative example 1] |  | > 1 | 
O=C(O)CNc1cccc(CN(Cc2ccc(-c3ccc(Cl)cc3)cc2)S(=O)(=O)c2cccnc2)n1 [Comparative example 4, {6-[(4′-Chlorobiphenyl-4-ylmethyl)(pyridin-3-ylsulfonyl)aminomethyl]-pyridin-2-ylamino}acetic acid] |  | > 1 | 
CC#Cc1cccc(-c2ccc(CN(Cc3cccc(NCC(=O)O)n3)S(=O)(=O)c3ccccc3)cc2)c1 [Example 16, (6-{(Benzenesulfonyl)[3′-(1-propynyl)biphenyl-4-ylmethyl]aminomethyl}-pyridin-2-ylamino)acetic acid] |  | 0.0088 | Inhibiting rate of HYP formation in the lung [3]: ≥ 70%
CCc1cccc(-c2ccc(CN(Cc3cccc(NCC(=O)O)n3)S(=O)(=O)c3ccccn3)cc2)c1 [Comparative example 7] | 0.88 |  | 
CCOc1cc(-c2ccc(CN(Cc3cccc(NCC(=O)O)n3)S(=O)(=O)c3ccccn3)cc2)ccn1 [Comparative example 15, (6-{[4-(2-Ethoxypyridin-4-yl)benzyl](pyridin-2-ylsulfonyl)aminomethyl}-pyridin-2-ylamino)acetic acid] | > 1 |  | Ki [2]: 3.2 nM
CCCc1cccc(-c2ccc(CN(Cc3cccc(NCC(=O)O)n3)S(=O)(=O)c3ccccn3)cc2)c1 [Comparative example 8] | 0.34 |  | 
O=C(O)CNc1cccc(CN(Cc2ccc(-c3ccc(F)cc3)cc2)S(=O)(=O)c2cccnc2)n1 [Comparative example 3, {6-[(4′-Fluorobiphenyl-4-ylmethyl)(pyridin-3-ylsulfonyl)aminomethyl]-pyridin-2-ylamino}acetic acid] |  | > 1 | 
CCOc1ccc(-c2ccc(CN(Cc3cccc(NCC(=O)O)n3)S(=O)(=O)c3ccccn3)cc2)cc1 [Comparative example 14] | > 1 |  | 
CCOc1cccc(-c2ccc(CN(Cc3cccc(NCC(=O)O)n3)S(=O)(=O)c3ccccn3)cc2)n1 [Example 12, (6-{[4-(6-Ethoxypyridin-2-yl)benzyl](pyridin-2-ylsulfonyl)aminomethyl}-pyridin-2-ylamino)acetic acid] | 0.037 |  | 
C=CCc1cccc(-c2ccc(CN(Cc3cccc(NCC(=O)O)n3)S(=O)(=O)c3ccccn3)cc2)c1 [Comparative example 10] | 0.56 |  | 
CC#Cc1cccc(-c2ccc(CN(Cc3cccc(NCC(=O)O)n3)S(=O)(=O)c3cccs3)cc2)c1 [Example 14, (6-{[3′-(1-Propynyl)biphenyl-4-ylmethyl](thiophen-2-ylsulfonyl)-aminomethyl}pyridin-2-ylamino)acetic acid] |  | 0.011 | 
Cc1cccc(-c2ccc(CN(Cc3cccc(NCC(=O)O)n3)S(=O)(=O)c3ccccn3)cc2)c1 [Comparative example 6] | 0.58 |  | 
COc1cccc(-c2ccc(CN(Cc3cccc(NCC(=O)O)n3)S(=O)(=O)c3ccccn3)cc2)c1 [Comparative example 11] | 0.2 |  | 
O=C(O)CNc1cccc(CN(Cc2ccc(-c3ccccc3)cc2)S(=O)(=O)c2cccnc2)n1 [Comparative example 2, {6-[(Biphenyl-4-ylmethyl)(pyridin-3-ylsulfonyl)aminomethyl]pyridin-2-ylamino}acetic acid] |  | 0.97 | 
CC#Cc1ccc(-c2ccc(CN(Cc3cccc(NCC(=O)O)n3)S(=O)(=O)c3ccccn3)cc2)cc1 [Comparative example 17] |  | > 1 | 
CCOc1ccccc1-c1ccc(CN(Cc2cccc(NCC(=O)O)n2)S(=O)(=O)c2ccccn2)cc1 [Comparative example 13] | > 1 |  | 
CC#Cc1cccc(-c2ccc(CN(Cc3cccc(NCC(=O)O)n3)S(=O)(=O)c3ccccn3)cc2)c1 [Example 4, (6-{[3′-(1-Propynyl)biphenyl-4-ylmethyl](pyridin-2-ylsulfonyl)aminomethyl}-pyridin-2-ylamino)acetic acid] |  | 0.016 | Inhibiting rate of HYP formation in the lung [3]: ≥ 70%
CCOc1cccc(-c2ccc(CN(Cc3cccc(NCC(=O)O)n3)S(=O)(=O)c3cccs3)cc2)c1 [Example 11, {6-[(3′-Ethoxybiphenyl-4-ylmethyl)(thiophen-2-ylsulfonyl)aminomethyl]-pyridin-2-ylamino}acetic acid] | 0.049 |  | 
CC#Cc1ccccc1-c1ccc(CN(Cc2cccc(NCC(=O)O)n2)S(=O)(=O)c2ccccn2)cc1 [Comparative example 16] |  | 0.5 | 
CCOc1cccc(-c2ccc(CN(Cc3cccc(NCC(=O)O)n3)S(=O)(=O)c3cccnc3)cc2)c1 [Example 9, {6-[(3′-Ethoxybiphenyl-4-ylmethyl)(pyridin-3-ylsulfonyl)aminomethyl]-pyridin-2-ylamino}acetic acid] |  | 0.051 | 
Cc1cnc(-c2ccc(CN(Cc3cccc(NCC(=O)O)n3)S(=O)(=O)c3ccccn3)cc2)s1 [Comparative example 5] | > 1 |  | 
CC#Cc1cccc(-c2ccc(CN(Cc3cccc(NCC(=O)O)n3)S(=O)(=O)c3cccnc3)cc2)c1 [Example 6, (6-{[3′-(1-Propynyl)biphenyl-4-ylmethyl](pyridin-3-ylsulfonyl)aminomethyl}-pyridin-2-ylamino)acetic acid] |  | 0.045 | 
